Source: patent publication US20260250320A1, “LIPIDATED PEPTIDE INHIBITORS OF INTERLEUKIN-23 RECEPTOR” (Janssen Pharmaceutica NV, priority 2023, published 2026)
*1 amine or outer side, *2 acyl side, *3 side chain or, on linkers, in order; H or OH if unused. Where a SMILES comes first, the peptide text is derived from it. Bridges are numbered along the chain shown (N, C = ends). Side-chain parts run from the residue outwards. [ ]: non-standard residue; d: D form. The star is where a group is joined. ξ: configuration not given here. Me3N+CH2CH2(OCH2CH2)4CO = C[N+](C)(C)CCOCCOCCOCCOCCC(=O)*; Me3N+(CH2)2O(CH2)2O(CH2)2CO = C[N+](C)(C)CCOCCOCCC(=O)*; X28 = CC(=O)[C@H](CCC(=O)*)NC(=O)CCCCCCCCCCCCCCCCC(=O)O; Trp(7-Me) = Cc1cccc2c(C[C@H](N)C(=O)O)c[nH]c12; d(γGlu) = O=C(O)[C@@H](CCC(=O)[*:2])N[*:1]; C18 diacid = O=C(O)CCCCCCCCCCCCCCCCC(=O)*; X6 = CN(CC[C@H](N[*:1])C(=O)[*:2])[*:3]; γGlu = O=C(O)[C@H](CCC(=O)[*:2])N[*:1]; 2Nal = N[C@@H](Cc1ccc2ccccc2c1)C(=O)O; AEF = NCCOc1ccc(C[C@H](N)C(=O)O)cc1; PEG6 = NCCOCCOCCOCCOCCOCCOCCC(=O)O; X2 = C[N+](C)(C)C[C@@H](CC(=O)O)N*; ξAEF = NCCOc1ccc(CC(N)C(=O)O)cc1; 3Pal = N[C@@H](Cc1cccnc1)C(=O)O; Lys(Me) = CNCCCC[C@H](N)C(=O)O; NMeK = CN[C@@H](CCCCN)C(=O)O; Pen = CC(C)(S)[C@H](N)C(=O)O; Suc = O=C(CCC(=O)[*:2])[*:1]; Thp = NC1(C(=O)O)CCOCC1; AEEA = NCCOCCOCC(=O)O; ξK = NCCCCC(N)C(=O)O; Sar = CNCC(=O)O

Experiments:
[1] = target: T1, IL-23R (Homo sapiens, UniProt Q5VWK5); test: IL23R Reporter Assay; assay type: cell-based; settings: HEK293 cells containing IL-23R, IL-12Rβ1 and STAT-inducible firefly luciferase reporter; 10 ng/mL IL-23 (EC90); 5 h
T1 construct: HEK293 cells containing IL-23R, IL-12Rβ1 and a firefly luciferase reporter gene driven by a STAT-inducible promoter (Promega); host or cells: HEK293
T1 sequence (Q5VWK5 24-629): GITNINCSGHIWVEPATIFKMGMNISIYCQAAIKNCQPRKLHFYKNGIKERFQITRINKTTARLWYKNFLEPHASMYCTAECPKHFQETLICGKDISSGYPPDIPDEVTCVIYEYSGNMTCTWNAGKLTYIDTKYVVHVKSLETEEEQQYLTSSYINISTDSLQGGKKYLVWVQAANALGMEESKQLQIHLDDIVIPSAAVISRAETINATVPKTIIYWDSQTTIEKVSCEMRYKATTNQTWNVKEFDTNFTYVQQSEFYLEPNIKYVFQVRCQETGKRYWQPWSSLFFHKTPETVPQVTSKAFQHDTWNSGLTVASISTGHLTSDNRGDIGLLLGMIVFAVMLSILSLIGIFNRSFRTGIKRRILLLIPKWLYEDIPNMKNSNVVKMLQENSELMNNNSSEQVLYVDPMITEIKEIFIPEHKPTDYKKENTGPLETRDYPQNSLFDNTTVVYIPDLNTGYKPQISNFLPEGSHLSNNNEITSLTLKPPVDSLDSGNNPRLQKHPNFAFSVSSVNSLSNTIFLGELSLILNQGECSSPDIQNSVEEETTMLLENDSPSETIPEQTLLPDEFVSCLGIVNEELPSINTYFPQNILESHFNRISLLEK
Outline: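 IC50 values were fitted with a 4-parameter Hill equation to luciferase signal, scaled between IL-23-only wells (0% inhibition) and 30 μM reference inhibitor (100%). The readout was a STAT-inducible reporter in IL-23R/IL-12Rβ1 HEK293 cells, stimulated with added 10 ng/mL IL-23 (EC90) for 5 h at 37° C and developed with BioGlo.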

[2] = system: IL-23-stimulated phosphorylated STAT3 in peripheral blood mononuclear cells (PBMCs); test: PBMC pSTAT3 Assay; assay type: cell-based; settings: PBMCs from healthy donors; 30 min preincubation with peptide; IL-23 5 ng/mL for 30 min; phospho-STAT3 by MSD
Outline: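 Phospho-STAT3 quantified by Meso Scale assay in lysates of PBMCs exposed to IL-23 (5 ng/mL, 30 min, 37 °C) after 30 min peptide pretreatment. Cells were cryopreserved donor PBMCs activated 4 days with anti-CD3 plus IL-1β (100 ng/mL) and starved ~4 h; IC50 reported.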

Row | SMILES | IC50 [1] [nM] | IC50 [2] [nM]
1 | CC(=O)N[C@H](CCCNC(=N)N)C(=O)N[C@@H]1C(=O)N[C@@H](CCCCNC(=O)COCCOCCNC(=O)COCCOCCNC(=O)CC[C@H](NC(=O)CCCCCCCCCCCCCCCCC(=O)O)C(=O)O)C(=O)N[C@@H]([C@@H](C)O)C(=O)N[C@@H](Cc2c[nH]c3c(C)cccc23)C(=O)N[C@@H](CCCCN(C)C(=O)CCOCCOCC[N+](C)(C)C)C(=O)N[C@H](C(=O)N[C@@H](Cc2ccc(OCCN)cc2)C(=O)N[C@@H](Cc2ccc3ccccc3c2)C(=O)NC2(C(=O)N[C@@H](CCC(=O)O)C(=O)N[C@@H](CC(N)=O)C(=O)N[C@@H](Cc3cccnc3)C(=O)N(C)CC(N)=O)CCOCC2)C(C)(C)SSC1(C)C [compound 76, MeCO-r-Pen(3)-K(PEG2PEG2gEC18OH)-T-7MeW-K(NMecPEG3a)-Pen(3)-AEF-2Nal-THP-E-N-3Pya-Sar-CONH2] (Ac-[dR][Pen]K([AEEA-AEEA-γGlu-C18 diacid])T[Trp(7-Me)][Lys(Me)](Me3N+(CH2)2O(CH2)2O(CH2)2CO)[Pen][AEF][2Nal][Thp]EN[3Pal][Sar]-NH2; disulfide 2-7) | < 50 | < 0.5
2 | CC(=O)NC(CCCCNC(=O)COCCOCCNC(=O)COCCOCCNC(=O)CC[C@@H](NC(=O)CCCCCCCCCCCCCCCCC(=O)O)C(=O)O)C(=O)N[C@@H]1C(=O)N[C@@H](CC(N)=O)C(=O)N[C@@H]([C@@H](C)O)C(=O)N[C@@H](Cc2c[nH]c3c(C)cccc23)C(=O)N[C@@H](CCCCNC(=O)CCC(=O)N[C@H](CC(=O)O)C[N+](C)(C)C)C(=O)N[C@H](C(=O)N[C@@H](Cc2ccc(OCCN)cc2)C(=O)N[C@@H](Cc2ccc3ccccc3c2)C(=O)NC2(C(=O)N[C@@H](CCC(=O)O)C(=O)N[C@@H](CC(N)=O)C(=O)N[C@@H](Cc3cccnc3)C(=O)N(C)CC(N)=O)CCOCC2)C(C)(C)SSC1(C)C (stereo partly drawn) [compound 34, MeCO-k(PEG2PEG2gEC18OH)-Pen(3)-N-T-7MeW-K(d)-Pen(3)-AEF-2Nal-THP-E-N-3Pya-Sar-CONH2] (Ac-[ξK]([AEEA-AEEA-d(γGlu)-C18 diacid])[Pen]NT[Trp(7-Me)]K([Suc-X2])[Pen][AEF][2Nal][Thp]EN[3Pal][Sar]-NH2; disulfide 2-7) | < 50 | < 0.5
3 | CC(=O)NCCCC[C@@H]1NC(=O)[C@H](Cc2c[nH]c3c(C)cccc23)NC(=O)[C@H]([C@@H](C)O)NC(=O)[C@H](CC(N)=O)NC(=O)[C@@H](NC(=O)COCCOCCNC(=O)COCCOCCNC(=O)CC[C@H](NC(=O)CCCCCCCCCCCCCCCCC(=O)O)C(=O)O)C(C)(C)SSC(C)(C)[C@@H](C(=O)N[C@@H](Cc2ccc(OCCN)cc2)C(=O)N[C@@H](Cc2ccc3ccccc3c2)C(=O)NC2(C(=O)N[C@@H](CCCCNC(=O)CCC(=O)N[C@H](CC(=O)O)C[N+](C)(C)C)C(=O)N[C@@H](CC(N)=O)C(O)N[C@@H](Cc3cccnc3)C(=O)N(C)CC(N)=O)CCOCC2)NC1=O (stereo partly drawn) [compound 44, HOC18gEPEG2PEG2CO-Pen(3)-N-T-7MeW-K(Ac)-Pen(3)-AEF-2Nal-THP-K(d)-N-3Pya-Sar-CONH2] | < 50 | < 0.5
4 | CC(=O)[C@H](CCC(=O)NCCOCCOCCOCCOCCOCCOCCC(=O)NCCCC[C@@H](C(N)=O)N(C)C(=O)[C@H](Cc1cccnc1)NC(=O)[C@H](CC(N)=O)NC(=O)[C@H](CCC(=O)O)NC(=O)C1(NC(=O)[C@H](Cc2ccc3ccccc3c2)NC(=O)C(Cc2ccc(OCCN)cc2)NC(=O)[C@H]2NC(=O)[C@H](CCN(C)C(=O)CCOCCOCCOCCOCC[N+](C)(C)C)NC(=O)[C@H](Cc3c[nH]c4c(C)cccc34)NC(=O)[C@H]([C@@H](C)O)NC(=O)[C@H](CC(=O)N(C)C)NC(=O)[C@@H](NC(=O)CCOCCOCCOCCOCC[N+](C)(C)C)C(C)(C)SSC2(C)C)CCOCC1)NC(=O)CCCCCCCCCCCCCCCCC(=O)O (some centres unmarked) [compound 90, cPEG5aCO-Pen(3)-N(N(Me)2)-T-7MeW-Dab(NMecPEG5a)-Pen(3)-AEF-2Nal-THP-E-N-3Pya-NMeK(PEG6gEC18OH)-CONH2] ({Me3N+CH2CH2(OCH2CH2)4CO}-[Pen]D(NMe2)T[Trp(7-Me)][X6](Me3N+CH2CH2(OCH2CH2)4CO)[Pen][ξAEF][2Nal][Thp]EN[3Pal][NMeK]([PEG6-X28])-NH2; disulfide 1-6) | 50 to 500 | < 0.5
